Several values for one entry are separate records, joined by “and”; a condition that tells them apart may be missing. Identical values can stand only once. Like-named read-outs stand apart in the source and are kept apart here. Marks after values point to notes of the source that are not given here. A value given as a limit tells only on which side of the number the result lay.

Data set [1] deals with H4 cells. Briefly: High content imaging assay. In kind it is cell-based, human. The conditions noted are these: 72 h, read-out: H4 (nuclear count) IC50.
Data set [2] has as its target T1, DYRK1A (Homo sapiens, UniProt Q13627). Briefly: biochemical. In kind it is biochemical.
The subject of data set [3] is H4 cells. As to the kind of experiment: PrestoBlue cell proliferation/viability assay. In kind it is cell-based, human. The conditions noted are these: 72 h; for IC50: Homo sapiens, read-out: H4 (cell proliferation) IC50.
The subject of the next data set is MAO-A. The settings on record: read-out: MAO-A IC50, published, ref Bálint et al., 2017, Clarke and Ramsay, 2011, Herraiz and Brandt, 2014, Herraiz and Chaparro, 2005, Ionescu et al., 2012, Kim et al., 1997, Rahman and Rahmatullah, 2010, Reniers et al., Rommelspacher et al., 1994, Rüben et al., 2015, Santillo et al., Wurzlbauer et al., 2020; cited from earlier work.

The target of data set [4] is T2, Monoamine oxidase-A (MAO-A) (Homo sapiens, UniProt P21397).
T2 sequence (P21397 1-527): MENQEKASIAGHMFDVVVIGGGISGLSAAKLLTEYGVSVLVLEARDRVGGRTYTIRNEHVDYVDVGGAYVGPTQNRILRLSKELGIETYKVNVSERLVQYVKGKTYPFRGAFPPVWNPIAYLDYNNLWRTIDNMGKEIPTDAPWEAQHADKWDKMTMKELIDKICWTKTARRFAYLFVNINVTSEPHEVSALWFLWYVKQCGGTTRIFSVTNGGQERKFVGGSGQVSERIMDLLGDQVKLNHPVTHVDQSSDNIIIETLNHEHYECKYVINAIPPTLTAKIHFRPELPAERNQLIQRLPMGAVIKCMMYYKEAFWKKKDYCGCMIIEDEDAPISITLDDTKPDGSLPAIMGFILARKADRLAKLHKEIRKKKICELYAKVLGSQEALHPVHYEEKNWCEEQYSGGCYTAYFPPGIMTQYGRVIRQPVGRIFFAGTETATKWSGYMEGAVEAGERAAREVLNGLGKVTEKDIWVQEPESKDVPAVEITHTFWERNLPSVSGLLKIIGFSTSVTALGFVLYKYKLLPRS
As to the kind of experiment: biochemical. In kind it is biochemical.

Data set [5] concerns the target T1, DYRK1A. The settings on record: read-out: DYRK1A IC50, published values, ref Adayev et al., 2011, Bain et al., 2007, Bálint et al., 2017, Bruel et al., 2014, Foucourt et al., Göckler et al., 2009, Grabher et al., 2012, Kim et al., 2016, Kumar et al., 2018, Liu et al., 2017b, PubChem; cited from earlier work.
Data set [6] concerns U87 cells. As to the kind of experiment: PrestoBlue cell proliferation/viability assay. In kind it is cell-based, human. The conditions noted are these: 72 h; for U87 (cell proliferation) % inhibition at highest dose tested: PrestoBlue.
Data set [7] relates to U87 cells. Briefly: High content imaging assay. In kind it is cell-based, human. The settings on record: 72 h; for inhibition at 66 µM: read-out: U87 (nuclear count) % inhibition at highest dose tested; for U87 (nuclear count) % inhibition at highest dose tested: Hoechst 33342 high content imaging, highest dose tested (66 μM).
Data set [8] has as its target T1, DYRK1A. As to the kind of experiment: biochemical. In kind it is binding. The conditions noted are these: for IC50: 10-point 2-fold dose response; for inhibition at 6.7 µM: read-out: DYRK1A inhibition in pilot HTS.
For data set [9], the target named is T3, CLK1 (Homo sapiens, UniProt P49759). As to the kind of experiment: Kinase selectivity panel. In kind it is biochemical. The settings on record: 10 μM, n = 2.
T3 sequence (P49759 whole entry): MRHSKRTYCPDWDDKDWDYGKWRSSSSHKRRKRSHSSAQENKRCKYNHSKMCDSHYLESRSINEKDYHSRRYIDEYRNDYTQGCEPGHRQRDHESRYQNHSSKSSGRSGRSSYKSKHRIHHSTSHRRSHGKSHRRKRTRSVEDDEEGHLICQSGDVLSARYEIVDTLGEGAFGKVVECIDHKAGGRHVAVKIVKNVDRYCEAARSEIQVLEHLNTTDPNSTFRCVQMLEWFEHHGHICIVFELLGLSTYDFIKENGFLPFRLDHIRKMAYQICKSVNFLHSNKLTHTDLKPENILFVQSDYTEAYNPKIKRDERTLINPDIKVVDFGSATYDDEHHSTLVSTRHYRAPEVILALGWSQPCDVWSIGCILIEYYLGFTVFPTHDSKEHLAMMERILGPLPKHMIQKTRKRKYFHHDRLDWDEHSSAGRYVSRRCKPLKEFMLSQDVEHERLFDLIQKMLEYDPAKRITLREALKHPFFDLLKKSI
The next data set has as its target DYRK1B (Homo sapiens, UniProt Q9Y463). As to the kind of experiment: Kinase selectivity panel. In kind it is biochemical. The settings on record: 10 μM, n = 2.
In data set [10] the target is T1, DYRK1A. As to the kind of experiment: Kinase selectivity panel. In kind it is biochemical. The conditions noted are these: 10 μM, n = 2.
The target of the next data set is PIM1 (Homo sapiens, UniProt P11309). Briefly: Kinase selectivity panel. The conditions noted are these: 10 μM, n = 2.
Chain of PIM1 (P11309 whole entry): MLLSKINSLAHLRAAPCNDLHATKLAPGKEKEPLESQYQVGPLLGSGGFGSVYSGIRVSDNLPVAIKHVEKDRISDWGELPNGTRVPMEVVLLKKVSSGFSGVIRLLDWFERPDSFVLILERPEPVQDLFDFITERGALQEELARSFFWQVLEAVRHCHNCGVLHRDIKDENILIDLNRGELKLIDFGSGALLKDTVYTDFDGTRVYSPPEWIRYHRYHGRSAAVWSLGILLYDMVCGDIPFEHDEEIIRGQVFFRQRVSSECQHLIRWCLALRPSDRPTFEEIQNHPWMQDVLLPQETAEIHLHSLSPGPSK
The test system of data set [11] is U87 human glioblastoma cells. Briefly: U87 glioma tumor xenograft in nude NU/J mice. In kind it is in vivo.
The target of a further data set is CK1α1 (Homo sapiens, UniProt P48729). Briefly: Kinase selectivity panel. The settings on record: 10 μM, n = 2.
Chain of CK1α1 (P48729 whole entry): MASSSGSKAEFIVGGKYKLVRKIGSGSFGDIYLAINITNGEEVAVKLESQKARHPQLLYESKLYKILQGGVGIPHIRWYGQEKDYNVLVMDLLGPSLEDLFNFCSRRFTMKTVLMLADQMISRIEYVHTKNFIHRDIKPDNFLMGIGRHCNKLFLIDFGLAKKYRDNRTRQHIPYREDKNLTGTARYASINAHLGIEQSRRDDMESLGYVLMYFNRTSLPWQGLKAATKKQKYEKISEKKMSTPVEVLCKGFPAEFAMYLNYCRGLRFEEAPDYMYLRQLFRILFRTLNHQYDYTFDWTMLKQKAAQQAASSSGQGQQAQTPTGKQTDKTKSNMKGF
For data set [12], the target named is T3, CLK1. Briefly: InCELL Hunter / PathHunter in-cell target engagement assay. In kind it is cell-based.
The target of a further data set is T4, DYRK2 (Homo sapiens, UniProt Q92630).
T4 sequence (Q92630 1-601): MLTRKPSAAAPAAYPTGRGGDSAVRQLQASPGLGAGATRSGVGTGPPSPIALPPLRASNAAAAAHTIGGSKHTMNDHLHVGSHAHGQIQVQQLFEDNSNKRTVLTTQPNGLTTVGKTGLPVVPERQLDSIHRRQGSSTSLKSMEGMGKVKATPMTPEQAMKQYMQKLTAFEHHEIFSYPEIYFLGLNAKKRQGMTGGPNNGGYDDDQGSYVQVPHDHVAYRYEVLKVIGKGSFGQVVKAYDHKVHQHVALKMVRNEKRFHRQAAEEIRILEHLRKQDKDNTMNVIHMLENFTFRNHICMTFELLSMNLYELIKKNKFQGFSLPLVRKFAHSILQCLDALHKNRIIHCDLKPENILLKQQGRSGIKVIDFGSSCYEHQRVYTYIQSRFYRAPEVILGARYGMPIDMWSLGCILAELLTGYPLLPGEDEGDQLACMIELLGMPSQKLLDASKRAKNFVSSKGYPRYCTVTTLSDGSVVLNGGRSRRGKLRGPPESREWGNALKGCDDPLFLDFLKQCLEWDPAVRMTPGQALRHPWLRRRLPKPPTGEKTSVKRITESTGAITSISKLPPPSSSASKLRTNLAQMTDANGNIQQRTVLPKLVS
Briefly: Kinase selectivity panel. The conditions noted are these: 10 μM, n = 2.

Setting [13] is: using TR-FRET DYRK1A IC50 values.

Chain of DYRK1B (Q9Y463 whole entry): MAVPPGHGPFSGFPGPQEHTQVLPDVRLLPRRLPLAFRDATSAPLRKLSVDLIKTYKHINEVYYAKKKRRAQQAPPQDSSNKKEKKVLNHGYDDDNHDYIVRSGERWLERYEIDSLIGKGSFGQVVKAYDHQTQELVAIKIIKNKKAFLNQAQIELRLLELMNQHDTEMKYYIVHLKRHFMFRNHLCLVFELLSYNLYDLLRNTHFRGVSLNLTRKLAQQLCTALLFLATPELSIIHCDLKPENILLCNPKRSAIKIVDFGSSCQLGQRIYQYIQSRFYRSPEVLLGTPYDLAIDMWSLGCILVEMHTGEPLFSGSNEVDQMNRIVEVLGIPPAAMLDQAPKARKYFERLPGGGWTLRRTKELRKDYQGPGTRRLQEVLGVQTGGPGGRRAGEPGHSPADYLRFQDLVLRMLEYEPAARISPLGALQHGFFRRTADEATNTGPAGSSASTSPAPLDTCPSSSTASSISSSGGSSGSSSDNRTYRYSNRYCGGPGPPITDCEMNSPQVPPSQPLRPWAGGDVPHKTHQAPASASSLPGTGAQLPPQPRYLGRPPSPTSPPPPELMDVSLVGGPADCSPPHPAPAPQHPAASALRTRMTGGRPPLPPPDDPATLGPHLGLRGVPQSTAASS

Usually inhibition stands for how much of the control response was suppressed. Turning to `COc1ccc2c3c([nH]c2c1)C(C)=NCC3` [Harmaline, harmaline], the IC50 with H4 cells [1] (Homo sapiens) is 14.9 µM; against DYRK1A [2], 0.79 µM; with H4 cells [3], 19.6 µM; in the data set on MAO-A it was 0.005 to 0.02 µM; in [4] (MAO-A IC50, MAO-A Glo), 0.09 µM; in data set [4] (MAO-A IC50, MAO-Glo), 0.06 to 0.09 µM. For the same molecule, the IC50 is 1.24 to 4.59 µM at DYRK1A [5] and 2.35 µM against DYRK1A [8] (DYRK1A IC50, TR-FRET). Also, the “Fold more potent on MAO-A over DYRK1A” value in [4] (DYRK1A TR-FRET vs MAO-A) was ~ 25 fold and ~ 30 fold. In addition, the “DYRK1A:MAO-A (IC50 ratio)” value in data set [4] (setting [13]) stood at 26.1. For the same molecule, the “U87 (cell proliferation) % inhibition at highest dose tested” value (“U87 (cell proliferation) % inhibition” for short) with U87 cells [6] was 14% ^c. The inhibition at 66 µM in the data set with U87 cells [7] (Homo sapiens, U-87 MG) is approximately 66%. For the same molecule, the inhibition at 6.7 µM at DYRK1A [8] was determined as 81%.

For the molecule `CC1=NCCc2c1[nH]c1cc(O)ccc21` [Harmalol, harmalol], the IC50 in the data set with H4 cells [1] (Homo sapiens) was 25.2 µM; against DYRK1A [2], 0.18 µM; in the data set on H4 cells [3], 23.7 µM; in the data set with MAO-A, 0.153 µM; in data set [4] (MAO-A IC50, MAO-A Glo), 0.66 µM; against DYRK1A [8] (DYRK1A IC50, TR-FRET), 0.63 µM. Also, the “Reduction in enzyme activity, CLK1” value on CLK1 [9] is recorded as approximately 100%. Besides, the “Reduction in enzyme activity, DYRK1B” value at DYRK1B is listed as approximately 100%. Also, the “DYRK1A:MAO-A (IC50 ratio)” value in [4] is 1.0. Besides, the “Reduction in enzyme activity, DYRK1A (panel)” value on DYRK1A [10] is reported as approximately 100%. The “U87 (cell proliferation) % inhibition” value in the data set with U87 cells [6] is listed as 37% ^c. The inhibition at 66 µM with U87 cells [7] (Homo sapiens, U-87 MG) is less than 50%. Further, the “Fold lower activity against DYRK1A than harmol” value at DYRK1A [8] is ~ 6 fold. For the same molecule, on DYRK1A [8], the inhibition at 6.7 µM worked out at 79%.

Turning to `Cc1nccc2c1[nH]c1ccccc12` [Harmane, harmane], the IC50 was 17.1 µM in the data set on H4 cells [1] (Homo sapiens); 1 µM at DYRK1A [2]; more than 25 µM with H4 cells [3]; 0.029 to 0.337 µM in the data set with MAO-A; 0.64 µM in data set [4] (MAO-A IC50, MAO-A Glo); 1.82 µM on DYRK1A [5]. The same molecule returned an IC50 at DYRK1A [8] (DYRK1A IC50, TR-FRET) of 2.68 µM. In data set [4] (setting [13]), the “DYRK1A:MAO-A (IC50 ratio)” value was found to be 4.2. The “U87 (cell proliferation) % inhibition” value with U87 cells [6] was 30% ^c. In addition, the inhibition at 66 µM in the data set on U87 cells [7] (Homo sapiens, U-87 MG) was approximately 50%. Further, on DYRK1A [8], the inhibition at 6.7 µM was found to be 71%.

As to `COc1ccc2c(c1)[nH]c1c(C)nccc12` [Harmine, harmine, reference compound], the “Reduction in enzyme activity, PIM1” value at PIM1 was not below 70%. Further, the IC50 with H4 cells [1] (Homo sapiens) is 14.9 µM; with H4 cells [3], 4.9 µM; with MAO-A, 0.003 to 0.107 µM; in the data set on U87 cells [6] (Homo sapiens, U-87 MG, read-out: U87 (cell proliferation) IC50), more than 25 µM; with U87 cells [7] (Homo sapiens, U-87 MG, read-out: U87 (nuclear count) IC50), 17.6 µM. This molecule also displayed a Tumor inhibition rate in [11] (15 mg/kg i.p. q.d.) of 16.5%. The “Effect on body weight” value in [11] (15 mg/kg i.p. q.d., up to 21 days) is on record as “did not lead to significant differences in body weight”. Besides, the “Tremor activity in treated mice” value in [11] (anecdotal observation, duration of the study) is listed as “no tremor activity”. The “Reduction in enzyme activity, CK1α1” value on CK1α1 is recorded as not below 70%. Moreover, the inhibition at 6.7 µM at DYRK1A [8] was 74%. Also, the “Effect on β-gal activity (CLK1 target engagement)” value at CLK1 [12] (0.5, 5 and 50 μM) was “increase in β-gal activity”.

The EC50 is the concentration giving half of the maximal effect. With `COC(=O)[C@@]1(O)C[C@H]2O[C@]1(C)n1c3ccccc3c3c4c(c5c6ccccc6n2c5c31)C(=O)NC4` [K252a], the EC50 at CLK1 [12] (read-out: CLK1 cellular target engagement EC50, positive control inhibitor) was 0.0087 µM.

`c1ccc2c(c1)[nH]c1cnccc12` [Norharmane, norharmane]: the IC50 in the data set on H4 cells [1] (Homo sapiens) is 29.1 µM; on DYRK1A [2] it was 3.19 µM; with H4 cells [3], more than 25 µM; in the data set on MAO-A it was […]; at DYRK1A [5] it was 8.75 µM; at DYRK1A [8] (DYRK1A IC50, TR-FRET), 5.46 µM. In addition, in the data set with U87 cells [6], the “U87 (cell proliferation) % inhibition” value is on record as “No inhibition ^c”. In addition, the “U87 (nuclear count) % inhibition at highest dose tested” value in the data set on U87 cells [7] is given as “No inhibition ^c”.

As to `CN[C@@H]1C[C@H]2O[C@@](C)([C@@H]1OC)n1c3ccccc3c3c4c(c5c6ccccc6n2c5c31)C(=O)NC4` [Staurosporine, reference compound], the “MAO-A IC50, MAO-A Glo” value in [4] was “No inhibition”.

For the molecule `COc1ccc2c3c([nH]c2c1)[C@@H](C)NCC3` [Tetrahydroharmine, tetrahydroharmine], the “Reduction in enzyme activity, DYRK2” value at DYRK2 is on record as “minimal effect”. Moreover, the IC50 with H4 cells [1] (Hoechst 33342 high content imaging) was 26.9 µM; at DYRK1A [2] (read-out: DYRK1A IC50, 33P-ATP, casein substrate, ATP 10 μM, data generated by Reaction Biology) it was 6.42 µM; in [4] (read-out: MAO-A IC50, MAO-A Glo), 1.52 µM; at DYRK1A [5], 2.99 µM; at DYRK1A [8] (read-out: DYRK1A IC50, TR-FRET), 9.41 µM; on DYRK1A [8] (read-out: DYRK1A IC50, TR-FRET, listed as tetrahydroharmine) it was 9.4 µM. In addition, the “H4 (cell proliferation) % inhibition at highest dose tested” value in the data set on H4 cells [3] (PrestoBlue, highest dose tested) is given as 38%^c. In addition, in data set [4] (setting [13]), the “DYRK1A:MAO-A (IC50 ratio)” value was found to be 6.2. Besides, the “U87 (cell proliferation) % inhibition” value in the data set with U87 cells [6] was “No inhibition ^c”. Also, in the data set on U87 cells [7], the “U87 (nuclear count) % inhibition at highest dose tested” value is approximately 50% ^c.

Values taken from paper PMC8404221 (European journal of pharmaceutical sciences : official …, 2021).
